For series [1], the system named is MDA-MB-453 human breast cancer cell line. Kind of series: Anti-proliferation assay (MTT), MDA-MB-453. Format: cell-based. As to conditions: 24 h. The method, then: (§1) MCF-7 human breast cancer cells was cultured in DMEM/10% fetal bovine serum, in 5% CO2 water saturated atmosphere at 37 °C. MDA-MB-453 human breast cancer cells was cultured in L-15 medium in 100% air at 37 °C. Cell suspensions (10000/mL) were prepared and 100 μL/well dispensed into 96-well plates (Costar) giving 1000 cells/well. The plates were returned to the incubator for 24 h to allow the cells to reattach. These compounds were initially prepared at 20 mM in DMSO. Aliquots (200 μL) were diluted into 20 mL culture medium giving 200 μM, and 10 serial dilutions of 3× prepared. Aliquots (100 μL) of each dilution were added to the wells, giving doses ranging from 100 μM to 0.005 μM. After a further incubated at 37 °C for 24 h in a humidified atmosphere with 5% CO2, the cell viability was assessed by the conventional 3-(4,5-dimethylthiazol-2-yl)-2,5-diphenyltetrazolium bromide (MTT) reduction assay and carried out strictly according to the manufacturer instructions (Sigma). The absorbance at 590 nm was recorded using LX300 Epson Diagnostic micro-plate reader. Then GI50 was calculated using SPSS 13.0 software.

Series [2] has as its system MCF-7 human breast cancer cell line. Put plainly: Anti-proliferation assay (MTT), MCF-7. The series is classed as cell-based. As to conditions: MCF7, 24 h. The method, then: as §1
The next series relates to MDA-MB-453 cell line. Kind of series: Flow cytometry, Annexin V-FITC/PI apoptosis. Format: cell-based, human. As to conditions: 0.05, 0.1 and 0.2 μM, 24 h. As to the method: MDA-MB-453 cell line was seeded per well in 24-well plates and incubated overnight. Then they were treated with compound C20 at three different concentrations (0.05 μM, 0.1 μM and 0.2 μM, separately). DMSO was chosen as the negative control with a regular dosage of 0.2%. After 24 h, cells were harvested for the apoptosis detection. In brief, collected cells were washed once with PBS and subsequently washed once with binding buffer, and then stained with Annexin V-FITC and propidium iodide (PI) in the binding buffer for 20 min at room temperature in the dark. Apoptotic cells were quantified using a FACScan cytofluorometer (PT. Madagasi Brosa Inc. JI. Batang Hari NO. 73, Propinsi Sumatera Utara, Indonesia) plotting at least 10,000 events per sample. To quantify the data, the frequencies in all quadrants were analyzed using flowjo software. We regarded cells in the lower right quadrant (Annexin V positive/PI negative) as early apoptotic cells, and cells in upper right quadrant (Annexin V positive/PI positive) as late apoptotic cells and necrotic cells.
(In general: In flow cytometry, cells or beads pass a laser one at a time.)

For another series, the system named is p-HER-2. Kind of series: Western blot p-HER-2 in MDA-MB-453. The series is classed as cell-based, human. As to conditions: increasing C20 levels. The method, then:
(§2) After incubation with compound, cells were harvested and washed with PBS, then lysed in lysis buffer (30 mm Tris, pH 7.5, 150 mm NaCl, 1 mm phenylmethylsulfonyl fluoride, 1 mm Na3VO4, 1% Nonidet P-40, 10% glycerol, and phosphatase and protease inhibitors). After centrifugation at 12,000 g for 5 min, the supernatant was collected as total protein. The concentration of the protein was determined by a BCATM protein assay kit (Pierce, Rockford, IL, USA). The protein samples were separated by 10% SDS–PAGE and subsequently electrotransferred onto a polyvinylidene difluoride membrane (Millipore, Bedford, MA, USA). The membrane was blocked with 5% non-fat milk for 2 h at room temperature. The blocked membrane was probed with the indicated primary antibodies overnight at 4 °C, and then incubated with a horse radish peroxidase (HRP)-coupled secondary antibody.
For orientation: In western blotting, separated proteins are transferred to a membrane and probed.

The next series has as its system p-EGFR. Put plainly: Western blot p-EGFR in MDA-MB-453. The series is classed as cell-based, human. As to conditions: increasing C20 levels. As to the method: as §2
Another series deals with Caspase3. Kind of series: Western blot Caspase3 in MDA-MB-453. Format: cell-based, human. As to conditions: increasing C20 levels. As to the method:
as §2

In series [3] the target is HER-2 protein (truncated) (Homo sapiens, UniProt P04626). Put plainly: BLI assay (bio-layer interferometry). The series is classed as binding. As to conditions: labeled compound, calculated by the Octet Red96 system. The method, then: Bio-layer interferometry (BLI). Binding of compounds (labeled; 0.01, 0.05, 0.1, 0.5 μM) to the HER-2 protein (truncated) was measured and analyzed on an Octet Red96 instrument (ForteBio) at room temperature. The buffer-equilibrated streptavidin biosensors were loaded with 100 μg/mL protein. A duplicate set of sensors was incubated in the buffer without protein for a background binding control. The assay was performed in black 96-well plates (Thermo Fisher Scientific) with the total working volume of 0.21 mL per well. The signal was analyzed using a double reference subtraction protocol to subtract the non-specific binding, background, and signal drift caused by sensor variability. The binding event was quantified by the shift of interference pattern of the light. The result was shown in Fig. 7 and the KD was calculated by the Octet Red96 instrument.

In a further series the target is T1, VEGFR-2 (Homo sapiens, UniProt P35968).
T1 construct: either the phosphorylated or nonphosphorylated form of the VEGFR-2 kinase domain
Put plainly: VEGFR-2 inhibitory assay. Format: biochemical. As to the method:
In a 96-well plate, 5 nM/L of either the phosphorylated or nonphosphorylated form of the VEGFR-2 kinase domain was incubated with selected compounds (10-point titration ranging from 4 μM to 0.1 μM), 1 μM/L gastrin substrate, 20 mM/L Tris-HCl, pH 7.5, 10 mM/L MgCl2, 100 mM/L NaCl, 1.5 mM/L EGTA, 1 mM/L DTT, 0.2 mM/L sodium orthovanadate, and 20 μg/mL BSA for 30 min at 25 °C. ATP was added at a final concentration of 11.8 μM and incubated for 60 min at room temperature. Eu-labeled antiphosphotyrosine pT66 antibody (Perkin- Elmer) was then used for detection. The fluorescence at 665 nM was measured with a Wallac Victor plate reader using a time delay of 50 μs. The experiment was performed for three independent times and in triplicate each time.

The next series deals with human erythrocytes. Put plainly: Hemolysis test. As to conditions: lytic concentration 30%. Format: cell-based. The method, then:
Hemolytic activity was assayed using fresh capillary human blood. Erythrocytes were collected by centrifuging the blood three times in chilled phosphate buffered saline (PBS at 4 °C) at 1000 × g for 10 min. The final pellet was resuspended in PBS to give a 2% w/v solution. Using a microtitre plate, 100 μL of the erythrocyte solution was added to dextran, PLL, stearyl-PLL or stearyl-PLL+ LDL (1–1000/μg/mL) in a volume of […]. Samples were then incubated for 3 h and the microtitre plate was centrifuged then at 1000 × g for 10 min and the supernatants (100 μL) transferred into a new microtitre plate. Hemoglobin release was determined spectrophotometrically using a microtitre plate reader (absorbance at 550 nm). Results were expressed as the amount of released hemoglobin induced by the compounds as a percentage of the total. Hemolysis test was tested according to the guide of biological evaluation of medical device (SFDA, China).

Another series has as its target EGFR (Homo sapiens, UniProt P00533). Kind of series: EGFR autophosphorylation kinase assay (DELFIA/time-resolved fluorometry).
The target in the next series is HER-2 (Homo sapiens, UniProt P04626). Put plainly: HER-2 autophosphorylation kinase assay (DELFIA/time-resolved fluorometry).

Structures are written as SMILES.

T1 sequence (P35968 834-1162 limits assumed, species assumed): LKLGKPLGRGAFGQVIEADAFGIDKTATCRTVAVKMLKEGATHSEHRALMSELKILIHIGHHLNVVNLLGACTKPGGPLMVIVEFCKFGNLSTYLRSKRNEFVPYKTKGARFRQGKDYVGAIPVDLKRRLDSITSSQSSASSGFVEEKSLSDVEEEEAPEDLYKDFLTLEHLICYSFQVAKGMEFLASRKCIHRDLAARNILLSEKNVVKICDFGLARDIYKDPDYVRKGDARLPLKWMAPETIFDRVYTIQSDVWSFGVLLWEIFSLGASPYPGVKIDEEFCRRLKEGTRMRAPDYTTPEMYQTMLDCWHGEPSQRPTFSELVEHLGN
HER-2, sequence (P04626 676-1245): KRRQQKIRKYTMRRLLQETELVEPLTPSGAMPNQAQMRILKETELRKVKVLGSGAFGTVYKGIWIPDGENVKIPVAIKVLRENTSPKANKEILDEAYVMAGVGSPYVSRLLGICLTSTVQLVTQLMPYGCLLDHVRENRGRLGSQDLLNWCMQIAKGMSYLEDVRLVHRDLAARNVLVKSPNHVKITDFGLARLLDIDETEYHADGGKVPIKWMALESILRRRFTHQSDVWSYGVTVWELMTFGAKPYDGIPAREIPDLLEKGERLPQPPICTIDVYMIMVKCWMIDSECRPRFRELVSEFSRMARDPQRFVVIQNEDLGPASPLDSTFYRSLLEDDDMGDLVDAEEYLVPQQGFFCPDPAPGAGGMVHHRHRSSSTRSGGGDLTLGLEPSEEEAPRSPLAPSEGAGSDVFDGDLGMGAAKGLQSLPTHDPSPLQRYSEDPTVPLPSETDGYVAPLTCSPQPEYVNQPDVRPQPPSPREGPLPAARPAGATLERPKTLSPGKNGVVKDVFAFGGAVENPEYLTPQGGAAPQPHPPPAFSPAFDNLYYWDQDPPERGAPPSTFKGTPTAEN
HER-2 protein (truncated), sequence (P04626 676-1245): as above
EGFR, sequence (P00533 669-1210): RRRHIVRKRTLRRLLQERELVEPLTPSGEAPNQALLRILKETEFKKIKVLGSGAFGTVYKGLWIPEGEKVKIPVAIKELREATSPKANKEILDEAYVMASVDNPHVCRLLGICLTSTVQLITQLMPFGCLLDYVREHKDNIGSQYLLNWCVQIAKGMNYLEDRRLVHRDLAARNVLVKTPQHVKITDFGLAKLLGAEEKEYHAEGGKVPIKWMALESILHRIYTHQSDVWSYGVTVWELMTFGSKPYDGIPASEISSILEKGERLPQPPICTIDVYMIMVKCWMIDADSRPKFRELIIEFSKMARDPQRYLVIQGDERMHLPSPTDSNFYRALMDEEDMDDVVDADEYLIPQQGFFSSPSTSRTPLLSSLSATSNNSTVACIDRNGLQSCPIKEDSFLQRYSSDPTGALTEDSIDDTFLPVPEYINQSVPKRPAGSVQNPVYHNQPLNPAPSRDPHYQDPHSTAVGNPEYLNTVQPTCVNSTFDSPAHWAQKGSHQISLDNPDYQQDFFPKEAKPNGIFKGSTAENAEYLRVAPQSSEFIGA

`COc1ccc(C2CC(c3ccc4c(c3)OCCO4)=NN2C(N)=S)cc1OC` (centres unmarked) [Compound C20, 3-(2,3-dihydrobenzo[b][1,4]dioxin-6-yl)-5-(3,4-dimethoxyphenyl)-4,5-dihydro-1H-pyrazole-1-carbothioamide]: the GI50 (in general, the concentration at which growth is held to half of that of the control) came out at 0.15 ± 0.01 µM in [1] and 11.9 ± 1.06 µM in series [2]. In the series on MDA-MB-453 cell line, the induction of apoptosis entry is given as “induce apoptosis of activated MDA-MB-453 cell line in a dose-dependent manner”. Moreover, the p-HER-2 levels entry with p-HER-2 is listed as “gradually trend of decrease”. Further, in the series with p-EGFR, the p-EGFR levels entry is given as “unconspicuous”. The Caspase3 levels entry in the series on Caspase3 is on record as “corresponding increase”. The Kd (commonly the constant that tells how readily two partners part at equilibrium) in series [3] was 0.187 µM. Moreover, the IC50 (in general, the concentration needed to halve the response being measured) at VEGFR-2 is 18.4 ± 1.74 µM; on EGFR, 28.6 ± 2.52 µM; at HER-2, 0.03 ± 0.002 µM. In addition, the “Hemolysis LC30” value with human erythrocytes was more than 10000 µg/mL.

The values are drawn from publication PMC4897788, “Design, biological evaluation and 3D QSAR studies of novel dioxin-containing pyrazoline derivatives with thiourea skeleton as selective HER-2 inhibitors” (Scientific Reports, 2016).
